According to publication PMC8096218, “Global RNA profiles show target selectivity and physiological effects of peptide-delivered antisense antibiotics” (Nucleic Acids Research, 2021):

System: acpP mRNA
Experiment: Northern blot of acpP transcript levels after PNA treatment
Format: cell-based, Salmonella enterica serovar Typhimurium
Details: 5 μM, 5, 10 or 15 min, 10^6 cfu/ml; two biological replicates
Description: For northern blotting, equal RNA amounts were used for gel electrophoresis (10 μg in Figure 4B; 100–150 ng in Figure 4E) and subsequent transfer to Hybond+ membranes (GE Healthcare Life Sciences). After crosslinking (0,12 J/cm^2), membranes were blocked using ROTI®Hybri-Quick (Roth) and incubated with RNA-specific digoxigenin (DIG; Roche)- or radioactively-labeled (5′ ^32P-labeling ([28])) oligonucleotides. In vitro transcription (MEGAscript T7 polymerase, Ambion), DIG-labeling of probes and northern blot detection was performed according to the manufacturer's instructions. Sequences of all the oligonucleotides (purchased from Eurofins Genomics or Sigma) employed for northern blot probe generation or RT-qPCR are listed in Supplementary Table S2. Signals were visualized on a phosphorimager (Typhoon FLA 7000, GE Healthcare) for radioactive probes, or using an ImageQuant (LAS 4000, GE Healthcare) for DIG-labeled probes.
Bacterial overnight cultures were diluted 1:100 in fresh MHB and grown to OD600 0.5. […]
Figure 4. […] In brief, 10^9 cfu were pelleted for the isolation of RNA, which was subsequently analyzed using (A) a denaturing polyacrylamide gel (1 μg/lane) and (B) northern blotting (10 μg/lane). […] (B) Transcript levels of two sRNAs, SroC and SdhX (SdhX1, SdhX2), and the loading control 5S were detected using sequence specific radioactive-labeled probes. […]

Sequence: KFFKFFKFFK [KFF-acpP, KFF peptide conjugated to 10-mer antisense PNA against the translational start site of acpP]
- acpP mRNA levels (northern blot): rapid decrease of acpP mRNA levels from 5 min post treatment onwards
